Laboratory results as given in US9884012B2, “Use of PEDF-derived polypeptides for promoting muscle or tendon regeneration or arteriogenesis” (MacKay Memorial Hospital, priority 2012, dated 2018).

Columns and labels:
tendon stem cells (TSCs) = test: TSCs proliferation assay (BrdU labeling) in vitro; type: cell-based, New Zealand White rabbits; conditions: TSCs passage 4; 50 nM peptide, 5% FBS, 24 hours; BrdU pulse-labeling
Procedure: New Zealand White rabbits (6-8 months old, 3.0-4.0 kg) were used in this study. Achilles tendons were removed from the rabbits by cutting through their bony attachments. The tendon sheath was stripped away and the core portion of the tendons was minced into small fragments. Each 100 mg of fragment was then digested in a solution containing 3 mg/mL of type I collagenase and 4 mg/mL of dispase in 1 ml Dulbecco's Modified Eagle Medium (DMEM-high glucose) at 37° C. for 2 hours. The resultant cell suspension was centrifuged at 1,000 rpm for 15 minutes to obtain a cell pellet which was then resuspended in a growth medium consisting of DMEM supplemented with 10% heat inactivated fetal bovine serum (FBS), 100 μM 2-mercaptoethanol, and 100 U/ml penicillin and 100 μg/ml streptomycin. For passage, near-confluent cells were harvested with 0.25% trypsin and then 1×10^5 subcultured cells were further cultured in medium.
The TSCs at passage 4 were seeded at gelatin-coated slide in a 6-well plate at a density of 2×10^5 cells per well and cultured in growth medium (DMEM+10% FBS) for 24 hours before being replaced by a basal growth medium with 5% FBS only (control group) or with 5% FBS plus an additional 50 nM of PEDF-derived peptide (i.e., 29-mer, 24-mer, 20-mer, 18-mer, Mo 29-mer, or Mo 20-mer) for 24 hours. For BrdU labeling assay, BrdU (final concentration, 10 μM) was added to the culture for 4 hours. After fixing with 4% paraformaldehyde, cells were exposed to cold methanol for 2 minutes, and then treated with 1 N HCl at RT for 1 hour before performing immunofluorescence. The phenotype of passage 4 TSC was determined by immunocytochemistry of nucleostemin and type I collagen. Almost all of expanded TSCs were nucleostemin and type I collagen-double positive cells.
It has been reported that during the tendon healing process, tendon stem cells (TSCs) would proliferate and differentiate into tenocytes. To investigate whether present PEDF peptides would induce the proliferation of TSCs in vitro, tendons stem cells were isolated and cultured as described in the “Materials and Methods” section. The purity of TSCs was confirmed by a TSC marker, nucleostemin, as well as the expression of type I collagen by TSCs; together, these analyses indicated a TSC purity of near 100% (data not shown). The proliferation of TSCs was confirmed by BrdU pulse-labeling for 2 hours. Quantitative analysis of the level of BrdU-positive cells was performed as described above, and the results were summarized in Table 8.

[1] = tested on: adductor magnus muscle arterioles; test: hindlimb ischemia model, arteriole density (α-SMA) in adductor magnus muscle; type: in vivo, C57BL/6 wild-type mice; conditions: two weeks after surgery, sustained-release formulation (Bolus: bolus 29-mer)
Procedure: The small artery densities (α-SMA positive cells surrounding the whole circumference of the vessel) were measured and images were taken from 10 randomly-selected areas of adductor magnus muscle (200× magnification) in each sample, and blinded quantification was performed in triplicate by manually counting within each section; values from five sections were then averaged and expressed as arteriole density per mm^2.
6-week-old female C57BL/6 wild-type mice were anesthetized by an intraperitoneal injection of a mixture of zoletil (6 mg/kg) and xylazine (3 mg/kg). Hair was removed from the hindquarter with a depilating cream. To establish hindlimb ischemia, unilateral external iliac and femoral arteries and veins were ligated, cut, and excised. After surgery, the mice were randomly assigned to several experimental groups (n=6, each group) and treated as follows. In the blank control group, the mice were treated with 50 μl of blank alginate gel, whereas in the bolus control group, the mice received the bolus formulation containing 29-mer. In the PEDF peptide/alginate gel treatment groups, the mice received 50 μl of the sustained-release formulation, which comprised either 29-mer, 24-mer, or 20-mer. Additionally, in a PEDF 18-mer control group, mice were treated with a sustained-release formulation containing a PEDF 18-mer peptide. Treatments were applied by way of a single intramuscular injection to the gracilis muscle immediately after femoral artery and vein excision operation. The incision was closed after the wound was irrigated with sterile saline.
To investigate the arteriogenic effect of the present sustained-release formulation, adductor magnus muscles (located at the same level as femoral artery excision and in which arteriogenesis responsible for establishing collateral circulation is expected to be found) were harvested from animals in each experimental condition, two weeks after the surgery. Arterioles in muscle cross sections were identified by immunohistological staining for vascular smooth muscle cells (α-SMA; brown), and nuclei were labeled with hematoxylin; representative photographs were provided in FIG. 5. Quantitative analysis was also performed and the results were summarized in Table 3, and the data were expressed as α-SMA-positive arterioles per mm^2 in the peri-injury region.

[2] = tested on: tendon stem cells (TSCs) in injured tendon; test: tendo Achilles injury model, in vivo TSC proliferation (nucleostemin staining); set-up: species or system Sprague-Dawley rats; conditions: injured tendon specimens of Example 4.1; sustained-release formulation (Bolus: bolus 29-mer)
Procedure: De-paraffinized tissue sections or 4% paraformaldehyde fixed rabbit tendon stem cells (TSCs) were blocked with 10% goat serum and 5% BSA for 1 hour. Double staining was done using primary antibodies against α-SMA (1:100 dilution), IB4 (5 μg/ml), Pax7 (1:100 dilution), nucleostemin (1:100 dilution) and type I collagen 1A1 (1:50) at 37° C. for 2 hours, followed by incubation with the appropriate rhodamine- or FITC-conjugated donkey IgG for 1 hour at RT. Nuclei were located by counterstaining with Hoechst 33258 for 7 minutes. Images were captured using a Zeiss epifluorescence microscope with a CCD camera.
To investigate the effects of the present PEDF peptides on tendon regeneration, a rat model with tendon injury was established as follows. Adult 10-week-old male Sprague-Dawley rats (total n=50; initial body weight=312±11 g) were anesthetized by an intraperitoneal injection of a xylazine (10 mg/kg). Then, the left tendo Achilles injury was created by full-thickness insertion of an 18-gauge needle through tendo Achilles 1 cm proximal to its insertion into the calcaneum. This created a horizontal (transaction) wound which was flanked by intact tendon tissue on both sides to prevent the retraction of severed ends.
The rats were randomly assigned (n=10/group) to five experimental groups and treated as follows. In the blank control group, the mice were treated with 150 μl of blank alginate gel. For the bolus control group, 150 μl of the bolus formulation (29-mer) was administered. […]
Specimens obtained from animals in different experimental groups of Example 4.1 were stained for nucleostemin (green) to investigate whether in vivo TSC proliferation would be promoted by the present sustained-release formulation during the tendon wound healing process. In quantitative analysis, ten randomly selected microscopic fields in each experimental group were photographed, and the percentage of nucleostemin-positive cells per total cells (counterstained by Hoechst 33258; blue) was calculated.

Sequence	BrdU Labeling Index (%) (tendon stem cells (TSCs))	Arteriole Density per mm^2 (α-SMA-positive arterioles) [1]	Nucleostemin Labeling Index (%) [2]
SLGAEQRTESIIHRALYYDLISSPDIHGT [29-mer, synthetic peptide corresponding to residues 93-121 of human PEDF]	31.8 ± 3.6 %	11.7 ± 1.5 per mm^2	16.4 ± 2.9 %
SLGAEQRTESIIHRALYYDL [20-mer, synthetic peptide corresponding to residues 93-112 of human PEDF]	33.2 ± 6.6 %	10.7 ± 1.2 per mm^2	15.0 ± 3.9 %
SLGAEQRTESIIHRALYYDLISSP [24-mer, synthetic peptide corresponding to residues 93-116 of human PEDF]	29.0 ± 4.6 %	10.0 ± 0.58 per mm^2	16.8 ± 4.2 %
